# Data published in patent publication US20260347843A1, “NERVOUS SYSTEM DELIVERY ENHANCER” (priority 2022, published 2026).
# Experiments:
# [1] = Evaluation of motor function in an open-field test; type: in vivo, mouse; settings: coadministered with Mapt-targeting ASO (50 μg); 1 hour after intraventricular administration
# Description: On the ASO described in Table 2, the preparation of the nucleic acid, an in vivo experiment, and the evaluation of the target gene suppression effect were performed by the same methods as in Example 1. In this Example, however, the dose of the nucleic acid agent per mouse was 9.4 nmol (50 μg).
# By the below-described methods, evaluation of central nervous system toxicity and evaluation of motor function were performed on mice after intraventricular administration.
# To evaluate the motor function, an open-field test was performed at each point of time after the intraventricular administration. Specifically, a mouse was placed in the center of a cage (50 cm in width×50 cm in […]×40 cm in height), and the track of the mouse was recorded for 5 minutes. On the basis of the data recorded, the total maximum moving speed (m/s) and the moving time(s) were measured using the video tracking software (ANY-maze).
# [2] = system: Sod1 mRNA; experiment: Sod1 mRNA expression level in the hippocampus after intraventricular administration of siRNA; type: in vivo, mouse; settings: coadministered with siRNA (7.0 nmol, 100 μg), 7 days
# [3] = system: exon 23/intron 23 of dystrophin pre-mRNA; experiment: Exon 23 skipping efficiency in the brain after intraventricular administration; type: in vivo, mouse; settings: TGN-073 250 μg, hippocampus, striatum, cortex (any site), 7 days
# Description: The mouse used was a 6-week-old male C57BL/6J mouse having a body weight of 20 g. In the following Examples, all the experiments performed using a mouse were based on n=3. PMO (the PMO single administration group) at 2.5 nmol or 2.5 nmol PMO with 250 μg of TGN-073 added thereto (the PMO/TGN-073 coadministration group) was administered in an amount of 10 μL to the left cerebral ventricle of a mouse.
# At 1 week after the intraventricular administration, the mouse was dissected, and the hippocampus, striatum, and cortex (occipital lobe) were extirpated. Subsequently, mRNA was extracted from each tissue, using Isogen II. On the total RNA (900 ng) extracted, One-Step RT-PCR was performed using Qiagen One Step RT-PCR Kit (manufactured by Qiagen N.V.). A reaction solution was prepared in accordance with the protocol attached to the Kit. […]
# A reaction product of the above-described RT-PCR, in an amount of 1 μL, was analyzed using Bioanalyzer 2100 (manufactured by Agilent Technologies, Inc.), and using an Agilent DNA1000 kit. The number “A” of moles of the nucleotide of the band skipped by exon 23 and the number “B” of moles of the nucleotide of the band not skipped by exon 23 were measured. On the basis of the measurement values of these “A” and “B”, the skipping efficiency was determined in accordance with the following formula: skipping efficiency (%)=A/(A+B)×100. […]
# [4] = ASO concentration in spinal cord and left hippocampus after intrathecal administration; type: in vivo; settings: rat, coadministered with Mapt-targeting ASO of Table 2 (76 nmol, 400 μg per rat), 7 days
# Description: In this Example, an ASO having the same configuration as the ASO used in Example 3 (the ASO described in Table 2) was used, and a nucleic acid was prepared by the same method as in Example 1.
# The intrathecal administration of ASO and the measurement of the ASO concentration were performed by the following methods. A catheter was inserted into the spinal subarachnoid of an 8-week-old Slc:SD rat (male). When the rat was 9 weeks old, ASO and/or TGN-073 in an amount of 76 nmol (400 μg) per rat ([…]) was administered intrathecally. Hereinafter, the rats to which ASO alone was intrathecally administered are referred to as the “ASO single administration group”, and the rats to which ASO and TGN-073 were intrathecally administered together are referred to as the “ASO/TGN-073 coadministration group”. The spinal part and the left hippocampus were extirpated from the rats at 7 days after the intrathecal administration, and the ASO concentration in each tissue was evaluated by the same method as in Example 1.
# [5] = VHH antibody concentration in brain tissue after intraventricular administration (Alexa 647 fluorescence); type: in vivo; settings: coadministered with VHH antibody (29 μmol/mouse), TGN-073 250 μg/mouse, left hippocampus, left occipital cortex, left basal ganglia, 3 hours
# Description: In this Example, a fluorescence-labeled camelized single domain antibody (VHH antibody; Alpaca anti-Rabbit IgG Nano (VHH) Recombinant Secondary Antibody, Alexa Fluor (trademark)647, #SA5-10327, Invitrogen) alone or in combination with TGN-073 (250 μg/mouse) was intraventricularly administered at a dose of […] to an 8-week-old ICR mouse (female). Hereinafter, the mice to which the VHH antibody alone was intraventricularly administered are referred to as the “VHH antibody single administration group”, and the mice to which the VHH antibody and TGN-073 were intraventricularly administered together are referred to as the “VHH antibody/TGN-073 coadministration group”. Brain tissue samples of the left hippocampus, left occipital cortex, and left basal ganglia were collected from the mice at 3 hours after the intraventricular administration. Using a fluorescence plate reader (M1000Pro, Tecan Group Ltd.), the Alexa 647 fluorescence intensity per brain weight was measured to thereby evaluate the concentration of the VHH antibody in each brain tissue.
smiles,measurement,setting,value
"O=S(=O)(Nc1ncccc1OCc1ccccc1)c1ccccc1 [TGN-073, N-(3-benzyloxypyridin-2-yl)-benzene-sulfonamide]",Maximum moving speed in open-field test vs ASO single administration,[1],substantially the same maximum moving speed
same,Moving time in open-field test vs ASO single administration,[1],the same moving time
same,Target gene (Sod1) suppression effect in the brain (hippocampus) vs siRNA single administration,[2],marked augmentation
same,Exon 23 skipping efficiency vs Chol-HDO (PMO) single administration,[3]; coadministered with Chol-HDO (PMO) (2.5 nmol),noticeable increase
same,Exon 23 skipping efficiency vs PMO single administration,[3]; coadministered with PMO (2.5 nmol),noticeable increase
same,ASO concentration in the left hippocampus vs ASO single administration,[4],dramatic increase
same,ASO concentration in the spinal part vs ASO single administration,[4],dramatic increase
same,VHH antibody concentration in the central nervous system vs VHH antibody single administration,[5],dramatic increase
